Values of other authors as cited in patent publication US9683008B2, “Synthetic bile acid compositions and methods” (Kythera Biopharmaceuticals, Inc., priority 2010, dated 2017).

Columns and labels:
[1] = neutral pH
[2] = target: albumin (Homo sapiens, UniProt P02768); details: 0.4 mg/mL deoxycholate (comparable to the fasting state), in the presence of 26 mg/mL of albumin
albumin, sequence (P02768 25-609): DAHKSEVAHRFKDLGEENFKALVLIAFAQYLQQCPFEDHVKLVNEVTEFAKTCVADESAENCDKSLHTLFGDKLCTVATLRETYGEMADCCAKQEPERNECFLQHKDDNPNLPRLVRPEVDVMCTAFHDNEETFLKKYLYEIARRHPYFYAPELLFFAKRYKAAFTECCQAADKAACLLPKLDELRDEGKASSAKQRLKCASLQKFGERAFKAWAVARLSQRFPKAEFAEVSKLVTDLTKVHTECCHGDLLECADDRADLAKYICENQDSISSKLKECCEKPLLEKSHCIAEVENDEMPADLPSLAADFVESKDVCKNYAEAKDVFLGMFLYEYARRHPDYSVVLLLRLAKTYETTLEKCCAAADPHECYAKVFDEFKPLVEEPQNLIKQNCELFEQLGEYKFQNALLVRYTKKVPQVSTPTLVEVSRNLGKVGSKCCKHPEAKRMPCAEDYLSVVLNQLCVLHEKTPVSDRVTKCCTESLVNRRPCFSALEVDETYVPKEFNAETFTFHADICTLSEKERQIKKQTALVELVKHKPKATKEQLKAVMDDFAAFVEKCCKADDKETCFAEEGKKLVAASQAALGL

Question: For `C[C@H](CCC(=O)[O-])[C@H]1CC[C@H]2[C@@H]3CC[C@@H]4C[C@H](O)CC[C@]4(C)[C@H]3C[C@H](O)[C@]12C.[Na+]` [sodium deoxycholate], which critical micelle concentration [1] is on record?
Answer: approximately 2.4 mg/mL

Question: What about the bound to albumin [2] of the same molecule?
Answer: 98%

Question: And the solubility in acetone (acetone, compared with alcohol)?
Answer: even less soluble

Question: What about the “solubility in glacial acetic acid” value (glacial acetic acid, compared with alcohol) of the same molecule?
Answer: even less soluble

Question: And the soluble in water (water)?
Answer: 333 mg/mL
